These results are taken from patent US6555341B1, “Human theta subunit of the GABAa receptor” (Merck Sharp & Dohme Ltd., priority 1997, dated 2003).

For experiment [1], the target named is T1, GABAA receptor subunit combination α2β1θγ1 (Homo sapiens, UniProt P18505+P47869+Q9UN88).
T1 construct: expressed in transfected cells; host or cells: HEK 293 cells, transient, calcium phosphate precipitation
In words: Whole cell patch-clamp of HEK 293 cells transiently transfected with human GABA-A receptors, GABA concentration-response. It counts as cell-based. As to conditions: HEK 293 cells transiently expressing α2β1θγ1; GABA concentration-response curve. The procedure: (§1) Experiments were performed on HEK 293 cells transiently transfected with human cDNA combinations α2β1 γ1, and α2β1θγ1 (4 μgs of cDNA total per cover-slip) using calcium phosphate precipitation (Chen and Okayama, 1988) as previously described (Hadingham et al, 1993). Glass cover-slips containing the cells in a monolayer culture were transferred to a perspex chamber on the stage of Nikon Diaphot inverted microscope. Cells were continuously perfused with a solution containing 124 mM NaCl, 2 mM KCl, 2 mM CaCl2, 1 mM MgCl2, 1.25 mM KH2PO4, 25 mM NaHCO3, 11 mM D-glucose, at pH 7.2, and observed using phase-contrast optics. Patch-pipettes were pulled with an approximate tip diameter of 2 μm and a resistance of 4MΩ with borosilicate glass and filled with 130 mM CsCl, 10 mM HEPES, 10 mM EGTA, 3 mM Mg^+-ATP, pH adjusted to 7.3 with CsOH. Cells were patch-clamped in whole-cell mode using an Axopatch 200B patch-clamp amplifier. Drug solutions were applied by a double-barrelled pipette assembly, controlled by a stepping motor attached to a Prior manipulator, enabling rapid equilibration around the cell. […] Curves were fitted using a non-linear square-fitting program to the equation f(x)=BMAX/[1+(EC50/x)^n] where x is the drug concentration, EC50 is the concentration of drug eliciting a half-maximal response and n is the Hill coefficient. EC50's were analysed by unpaired students t-test.
For orientation: The patch-clamp technique gives a direct electrical read-out from membranes.

In experiment [2] the target is T2, GABAA receptor subunit combination α2β1γ1 (Homo sapiens, UniProt P18505+P47869).
T2 construct: expressed in transfected cells; host or cells: HEK 293 cells, transient, calcium phosphate precipitation
T2 sequence (P47869 29-451): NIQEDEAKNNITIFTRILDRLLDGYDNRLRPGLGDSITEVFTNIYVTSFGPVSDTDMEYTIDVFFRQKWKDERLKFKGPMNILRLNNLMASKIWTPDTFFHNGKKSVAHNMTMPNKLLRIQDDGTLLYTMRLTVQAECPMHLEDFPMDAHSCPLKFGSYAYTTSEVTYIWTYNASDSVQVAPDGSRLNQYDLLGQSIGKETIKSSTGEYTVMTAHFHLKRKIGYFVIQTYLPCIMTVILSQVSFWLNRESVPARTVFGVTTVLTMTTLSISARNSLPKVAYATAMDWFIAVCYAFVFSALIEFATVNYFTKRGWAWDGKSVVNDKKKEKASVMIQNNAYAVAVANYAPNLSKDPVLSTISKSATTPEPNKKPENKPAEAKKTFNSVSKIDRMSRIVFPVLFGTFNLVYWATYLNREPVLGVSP
T2 sequence (P18505 26-474): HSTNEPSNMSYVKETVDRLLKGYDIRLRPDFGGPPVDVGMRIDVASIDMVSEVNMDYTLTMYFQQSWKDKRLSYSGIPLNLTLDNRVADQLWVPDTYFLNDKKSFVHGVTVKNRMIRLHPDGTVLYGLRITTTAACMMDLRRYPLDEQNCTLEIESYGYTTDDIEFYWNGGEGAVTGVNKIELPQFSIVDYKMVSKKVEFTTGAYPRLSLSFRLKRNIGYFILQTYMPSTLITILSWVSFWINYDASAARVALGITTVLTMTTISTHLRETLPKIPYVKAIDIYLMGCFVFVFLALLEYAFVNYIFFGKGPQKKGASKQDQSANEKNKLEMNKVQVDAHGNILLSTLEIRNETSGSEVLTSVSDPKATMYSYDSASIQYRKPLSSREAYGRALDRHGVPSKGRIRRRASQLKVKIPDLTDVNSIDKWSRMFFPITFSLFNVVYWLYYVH
T2 sequence (Q8N1C3 36-465 partner): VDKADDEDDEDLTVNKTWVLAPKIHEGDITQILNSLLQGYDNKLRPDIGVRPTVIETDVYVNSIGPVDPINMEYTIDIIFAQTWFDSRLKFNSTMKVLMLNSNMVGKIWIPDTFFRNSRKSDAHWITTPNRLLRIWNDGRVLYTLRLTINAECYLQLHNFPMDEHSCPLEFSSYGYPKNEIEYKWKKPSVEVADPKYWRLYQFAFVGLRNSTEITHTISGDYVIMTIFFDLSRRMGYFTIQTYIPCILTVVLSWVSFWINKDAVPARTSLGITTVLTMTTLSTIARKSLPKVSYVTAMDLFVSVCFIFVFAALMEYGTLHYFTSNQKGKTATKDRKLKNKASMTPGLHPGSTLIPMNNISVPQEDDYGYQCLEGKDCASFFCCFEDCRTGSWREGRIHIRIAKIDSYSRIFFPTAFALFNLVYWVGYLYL
The description is as above. It counts as cell-based. As to conditions: HEK 293 cells transiently expressing α2β1γ1; GABA concentration-response curve. The procedure: as §1

SMILES strings stand for the structures.

T1 sequence (Q9UN88 22-632, one chain of several): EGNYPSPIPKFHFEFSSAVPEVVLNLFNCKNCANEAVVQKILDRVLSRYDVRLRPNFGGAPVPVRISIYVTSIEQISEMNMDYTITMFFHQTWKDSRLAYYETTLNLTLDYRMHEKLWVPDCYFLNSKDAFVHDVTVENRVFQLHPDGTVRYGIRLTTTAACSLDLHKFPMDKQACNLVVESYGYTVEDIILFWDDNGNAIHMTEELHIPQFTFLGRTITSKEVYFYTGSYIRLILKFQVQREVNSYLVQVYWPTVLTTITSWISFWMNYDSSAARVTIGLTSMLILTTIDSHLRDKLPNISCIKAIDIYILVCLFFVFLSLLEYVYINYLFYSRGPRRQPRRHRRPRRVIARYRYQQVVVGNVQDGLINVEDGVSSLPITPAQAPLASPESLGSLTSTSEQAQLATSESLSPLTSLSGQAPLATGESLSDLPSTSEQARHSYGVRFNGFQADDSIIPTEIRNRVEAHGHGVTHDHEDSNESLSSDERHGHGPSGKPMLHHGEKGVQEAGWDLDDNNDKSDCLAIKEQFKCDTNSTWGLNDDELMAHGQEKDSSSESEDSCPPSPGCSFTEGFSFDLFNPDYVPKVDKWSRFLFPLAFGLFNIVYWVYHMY

Regarding `NCCCC(=O)O` [GABA, Gamma-amino butyric acid], the figures for the “Slope (Hill coefficient)” value in experiment [1] and in experiment [2] were 1.5 ± 0.1 and 1.6 ± 0.2, respectively.
